The text below walks through data of ChEMBL document CHEMBL1151933, “Identification of a disruptor of the MDM2-p53 protein-protein interaction facilitated by high-throughput in silico docking” (Bioorg Med Chem Lett, 2009).

The nature of experiment [1]: Inhibition of GST-tagged MDM2 (1-150) / full-length His6-tagged p53 interaction expressed in Escherichia coli by alphascreen assay.
Experiment [2] is described as follows: Inhibition of GST-tagged MDM2/His6-tagged p53 interaction by ELISA.
The nature of experiment [3]: Inhibition of GST-tagged MDM2/His6-tagged p53 interaction at 100 uM by ELISA.

Regarding `COc1ccc(C2=N[C@@H](c3ccc(Cl)cc3)[C@@H](c3ccc(Cl)cc3)N2C(=O)N2CCNC(=O)C2)c(OC(C)C)c1` [NUTLIN-3], in experiment [1], the IC50 is 0.25 µM.
For `c1ccc(/C(=N/Nc2nc3ccccc3s2)c2ccccn2)cc1.c1ccc(/C(=N\Nc2nc3ccccc3s2)c2ccccn2)cc1` (mixture of isomers; form 2) [listing 1 of 2 here], the IC50 turned out to be 25 µM in experiment [1] and 20 µM in experiment [2].
`c1ccc(/C(=N/Nc2nc3ccccc3s2)c2ccccn2)cc1.c1ccc(/C(=N\Nc2nc3ccccc3s2)c2ccccn2)cc1` (mixture of isomers; form 2) [listing 2 of 2 here] registered an inhibition in experiment [3] greater than 50%.
`c1ccc(/C(=N/Nc2nc3ccccc3s2)c2ccccn2)cc1.c1ccc(/C(=N\Nc2nc3ccccc3s2)c2ccccn2)cc1` (mixture of isomers; form 1) showed an IC50 in experiment [1] of 13 µM.
